Test results from patent US10441663B2, “Methods for treating cancer” (Bicycle Therapeutics Limited, priority 2016, dated 2019).
*1 amine or outer side, *2 acyl side, *3 side chain or, on linkers, in order; H or OH if unused. Where a SMILES comes first, the peptide text is derived from it. Bridges are numbered along the chain shown (N, C = ends). [ ]: non-standard residue; d: D form. The star is where a group is joined. X1 = COc1cc2cc(c1Cl)N(C)C(=O)C[C@H](OC(=O)[C@H](C)N(C)C(=O)CCSSC(C)CCC(=O)*)[C@]1(C)O[C@H]1[C@H](C)[C@@H]1C[C@@](O)(NC(=O)O1)[C@H](OC)/C=C/C=C(\C)C2; 1Nal = N[C@@H](Cc1cccc2ccccc12)C(=O)O; TBMB = c1c(C[*:1])cc(C[*:3])cc1C[*:2]; Tle = CC(C)(C)[C@H](N)C(=O)O; βAla = NCCC(=O)O; Sar = CNCC(=O)O

System: 3LL syngeneic model
Test: In vivo efficacy of BT1718 in 3LL syngeneic model (Example 9)
Set-up: species or system Mus Musculus
Experimental: The objective of this study was to evaluate the in vivo anti-tumor efficacy of BT1718 in the treatment of the subcutaneous 3LL syngeneic model in C57BL/6 mice.
The 3LL tumor cells were maintained in vitro as a monolayer culture in medium supplemented with 10% heat inactivated fetal bovine serum at 37° C. in an atmosphere of 5% CO2 in air. The tumor cells were routinely subcultured twice weekly by trypsin-EDTA treatment. The cells growing in an exponential growth phase were harvested and counted for tumor inoculation.
Each mouse was inoculated subcutaneously at the right flank with 3LL tumor cells (1×106) in 0.1 ml of PBS for tumor development. The animals were randomized and treatment was started when the average tumor volume reaches approximately 105 mm^3 for the efficacy study. The test article administration and the animal numbers in each group were shown in the experimental design table (Table 48).
All the procedures related to animal handling, care and the treatment in the study were performed according to the guidelines of the Association for Assessment and Accreditation of Laboratory Animal Care (AAALAC). At the time of routine monitoring, the animals were daily checked for any effects of tumor growth and treatments on normal behavior such as mobility, food and water consumption (by looking only), body weight gain/loss (body weights were measured every day), eye/hair matting and any other abnormal effect as stated in the protocol. Death and observed clinical signs were recorded on the basis of the numbers of animals within each subset.
The major endpoint was to see if the tumor growth could be delayed or mice could be cured. Tumor size was measured three times weekly in two dimensions using a caliper, and the volume was expressed in mm^3 using the formula: V=0.5 a×b2 where a and b are the long and short diameters of the tumor, respectively. The tumor size was then used for calculations of T/C value. The T/C value (in percent) is an indication of antitumor effectiveness; T and C are the mean volumes of the treated and control groups, respectively, on a given day.
TGI was calculated for each group using the formula: TGI (%)=[1−(Ti−T0)/(Vi−V0)]×100; Ti is the average tumor volume of a treatment group on a given day, T0 is the average tumor volume of the treatment group on the day of treatment start, Vi is the average tumor volume of the vehicle control group on the same day with Ti, and V0 is the average tumor volume of the vehicle group on the day of treatment start.
Summary statistics, including mean and the standard error of the mean (SEM), are provided for the tumor volume of each group at each time point.
Statistical analysis of difference in tumor volume among the groups was conducted on the data obtained at the best therapeutic time point after the final dose.
A one-way ANOVA was performed to compare tumor volume among groups, and when a significant F-statistics (a ratio of treatment variance to the error variance) was obtained, comparisons between groups were carried out with Games-Howell test. All data were analyzed using Prism. P<0.05 was considered to be statistically significant.

## COc1cc2cc(c1Cl)N(C)C(=O)C[C@H](OC(=O)[C@H](C)N(C)C(=O)CCSSC(C)CCC(=O)NCCC(=O)N(C)CC(=O)N(C)CC(=O)N(C)CC(=O)N(C)CC(=O)N(C)CC(=O)N(C)CC(=O)N(C)CC(=O)N(C)CC(=O)N(C)CC(=O)N(C)CC(=O)N[C@@H](C)C(=O)N[C@H]1CSCc3cc4cc(c3)CSC[C@H](NC(=O)[C@@H](C)NC(=O)[C@H](Cc3cccc5ccccc35)NC(=O)[C@H](CCC(=O)O)NC(=O)[C@H](CC(N)=O)NC(=O)[C@@H](C)NC1=O)C(=O)N[C@@H](CCC(=O)O)C(=O)N[C@@H](CC(=O)O)C(=O)N[C@@H](Cc1ccccc1)C(=O)N[C@@H](Cc1ccc(O)cc1)C(=O)N[C@@H](CC(=O)O)C(=O)N[C@@H](C(C)(C)C)C(=O)N[C@H](C(N)=O)CSC4)[C@]1(C)O[C@H]1[C@H](C)[C@@H]1C[C@@](O)(NC(=O)O1)[C@H](OC)/C=C/C=C(\C)C2 (stereo partly shown) [BT1718] ({X1-βAla}-[Sar][Sar][Sar][Sar][Sar][Sar][Sar][Sar][Sar][Sar]AC[dA]NE[1Nal][dA]CEDFYD[Tle]C-NH2; linker 12-18-25 via TBMB (inferred))
1 mg/kg, day 14
  TGI: 104.9%
  Tumor Volume: 2649 mm^3
3 mg/kg, day 14
  TGI: 69.9%
  Tumor Volume: 1764 mm^3
10 mg/kg, day 14
  TGI: 89.9
  Tumor Volume: 350 mm^3
1 mpk biw, day 0
  tumor volume trace over time: 106 ± 10 mm^3
1 mpk biw, day 2
  tumor volume trace over time: 239 ± 47 mm^3
1 mpk biw, day 4
  tumor volume trace over time: 405 ± 98 mm^3
1 mpk biw, day 7
  tumor volume trace over time: 765 ± 190 mm^3
1 mpk biw, day 9
  tumor volume trace over time: 1120 ± 267 mm^3
1 mpk biw, day 11
  tumor volume trace over time: 1568 ± 392 mm^3
1 mpk biw, day 14
  T/C: 104.9%
  TGI: −5.1%
  tumor volume trace over time: 2649 ± 553 mm^3
1 mpk, biw, day 14, Mean ± SEM
  Tumor Volume: 2649 ± 553 mm^3
3 mpk biw, day 0
  tumor volume trace over time: 105 ± 9 mm^3
3 mpk biw, day 2
  tumor volume trace over time: 234 ± 48 mm^3
3 mpk biw, day 4
  tumor volume trace over time: 423 ± 86 mm^3
3 mpk biw, day 7
  tumor volume trace over time: 706 ± 152 mm^3
3 mpk biw, day 9
  tumor volume trace over time: 991 ± 245 mm^3
3 mpk biw, day 11
  tumor volume trace over time: 1149 ± 313 mm^3
3 mpk biw, day 14
  T/C: 69.9%
  TGI: 31.4%
  tumor volume trace over time: 1764 ± 471 mm^3
3 mpk, biw, day 14, Mean ± SEM
  Tumor Volume: 1764 ± 471 mm^3
10 mpk biw, day 0
  tumor volume trace over time: 106 ± 8 mm^3
10 mpk biw, day 2
  tumor volume trace over time: 181 ± 21 mm^3
10 mpk biw, day 4
  tumor volume trace over time: 272 ± 38 mm^3
10 mpk biw, day 7
  tumor volume trace over time: 339 ± 86 mm^3
10 mpk biw, day 9
  tumor volume trace over time: 321 ± 85 mm^3
10 mpk biw, day 11
  tumor volume trace over time: 343 ± 92 mm^3
10 mpk biw, day 14
  T/C: 13.8%
  TGI: 89.9%
  tumor volume trace over time: 350 ± 105 mm^3
10 mpk, biw, day 14, Mean ± SEM
  Tumor Volume: 350 ± 105 mm^3
All mice
  body weight effect: maintained their bodyweight well
